Reference: patent US7235689B2, “Hydroxamic acid derivatives having anti-inflammatory action” (Italfarmaco SpA, priority 2003, dated 2007)

What was measured:
[1] = test system: TNFα production in human monocytes stimulated with LPS; assay: Inhibition of TNFα production in human monocytes stimulated with LPS (in vitro); type: cell-based; settings: Monocyte; human mononuclear peripheral blood cells, LPS 10 ng/ml, 24 hours, ELISA; average of at least two determinations
Method: The compounds were dissolved in DMSO to a final concentration of 120 mM and were stored at −80° C. The solutions for the test were prepared by diluting the mother solutions in RPMI 1640 with the addition of 1% FCS and 0.01% DMSO and were filtered with 0.2 μm filters.
Mononuclear peripheral blood cells were obtained from “buffy coats” of healthy donors by separation in a Ficoll-Hypaque gradient. The cells were spread in plates with 96 wells at a concentration of about 500,000 cells per well, suspended in RPMI 1640 containing 1% FCS and were incubated at 37° C. in the presence of various concentrations (from 10^−6 to 10^−11 M) of the compounds to be tested.
After 1 hour, LPS was added (to a final concentration of 10 ng/ml; obtained from E. coli 055:B5) and the plates were incubated at 37° C. for a further 24 hours. Upon completion, the supernatant fluids were collected and used for the determination of the TNFα content by ELISA (ELISA Duoset Kit; R&D systems, Minneapolis, Minn., USA).
The concentration of TNFα was calculated with the use of a calibration curve and the IC50 values (concentration which inhibits the production of the cytokine by 50%) were calculated from the curve obtained, giving the percentage inhibition values for each individual concentration of the compound under test.
The values obtained for the compounds described in the preceding examples are given in the following table (the values are the average of the results obtained in at least two determinations, performed with cells of different donors).

[2] = test system: TNFα production; assay: Inhibition of TNFα production in mice induced by LPS (in vivo); settings: CD1 female mice, 1 mg/kg orally 60 min. prior to LPS 2 mg/kg i.p., blood TNFα 90 min. after LPS
Method: For the compounds of the present invention, the capacity to inhibit TNFα production induced by the administration of LPS was evaluated in mice.
A lethal quantity of LPS (E. coli 055:B5; 2 mg/kg) was administered to the animals (CD1 female mice) by an intraperitoneal route; 90 min. after administration, the animals were killed and the TNFα content present in the blood was determined by ELISA assay.
The compounds under test, suspended in Methyl Cellosolve (0.5% in water), were administered orally, 60 min. prior to the administration of LPS, at a dose of 1 mg/kg.
The results are given in the following table; the values are expressed as percentage inhibition of TNFα production in comparison with the control group.

[3] = Metabolic resistance in vitro, S9 liver fraction; type: in vitro ADME; settings: 6 μg/ml, 37° C., phosphate buffer pH 7.4, S9 fraction protein content 2 mg/ml
Method: The metabolic resistance of some compounds described in the preceding examples was evaluated by incubating the substances with the S9 fraction of a microsomal preparation of liver cells. Each compound (6 μg/ml) was incubated at 37° C. for 30 min. in phosphate buffer (pH 7.4) containing the S9 fraction (protein content 2 mg/ml). The reaction was stopped by cooling in an ice bath and adding an equal volume of water/acetonitrile (50:50) containing 0.2% of trifluoroacetic acid. After centrifuging, an aliquot of the supernatant fluid was analyzed by HPLC to evaluate the percentage of product that had remained intact.

[4] = test system: human HEP-G2 hepatoma cell line; assay: Cytotoxicity in vitro on HEP-G2 cells (formazane colorimetric assay); type: cell-based; settings: 48 h
Method: The cytotoxicity of some compounds described in the preceding examples was evaluated in vitro on the human HEP-G2 hepatoma cell line by a commercial colorimetric method (Cell Titer 96® Aqueous One Solution Cell Proliferation Assay—Promega); the method determines the number of living cells on the basis of their ability to metabolize a tetrazolium salt producing formazane. The quantity of formazane produced is proportional to the number of living cells.
The HPE-G2 cells were distributed in micro-plates with 96 wells at a density of 4×10^4 cells/well (100 μl) in M199 medium containing 10% of bovine foetal serum and supplements (complete medium).
After incubation for 24 h (37° C., 5% CO2, 90% humidity) the cells were washed once and the medium was replaced with 200 μl of complete medium containing the substances to be tested at final concentrations of 10^−5, 10^−6 and 10^−7 M. The test was performed in triplicate.
The plates were incubated for a further 48 h, after which 100 μl of medium was removed and 20 μl per well of dye solution was added in accordance with the supplier's instructions. The optical density (λ=490 nm) was read after incubation for 1 h at 37° C. with the use of a plate reader (Victor 2—Wallace Perkin Elmer).
The results are expressed as the percentage inhibition of the formation of formazane in comparison with the control.

[5] = target: mouse HDAC-1 enzyme (Mus musculus, UniProt O09106); assay: Inhibition of the enzymatic activity of histone deacetylase; type: biochemical
Method: The capacity of the compounds of the invention to inhibit the activity of the histone deacetylase enzyme was evaluated with the use of the mouse HADC-1 enzyme. The assay was performed by the method already described in the literature [Biochem. Biophys. Acta, 1996, vol. 1296, p. 181]. The IC50 values (concentration which inhibits the activity of the enzyme by 50%) were derived from the percentages of inhibition obtained with various concentrations of the compound under test; these values are given in the following table.

Sequence of mouse HDAC-1 enzyme (O09106 whole entry): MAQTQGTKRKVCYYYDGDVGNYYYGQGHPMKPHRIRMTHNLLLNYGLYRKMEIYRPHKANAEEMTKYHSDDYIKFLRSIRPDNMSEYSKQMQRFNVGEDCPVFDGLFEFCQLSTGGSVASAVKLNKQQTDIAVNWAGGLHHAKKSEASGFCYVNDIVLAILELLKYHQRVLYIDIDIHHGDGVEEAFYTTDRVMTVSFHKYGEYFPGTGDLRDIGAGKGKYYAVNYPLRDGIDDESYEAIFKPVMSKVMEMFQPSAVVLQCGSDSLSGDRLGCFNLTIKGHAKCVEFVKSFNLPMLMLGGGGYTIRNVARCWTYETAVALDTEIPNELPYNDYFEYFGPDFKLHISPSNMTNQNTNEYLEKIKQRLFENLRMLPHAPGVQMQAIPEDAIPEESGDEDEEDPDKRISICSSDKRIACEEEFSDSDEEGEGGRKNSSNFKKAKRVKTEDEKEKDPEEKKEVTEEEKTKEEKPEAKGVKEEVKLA

Structure (SMILES)	IC50 [1] [nM]	Inhibition of TNFα production in comparison with the control group [2] [%]	Residual product after 30 min. [3] [%]	Cytotoxicity at 10^−6 M (percentage inhibition of the formation of formazane) [4] [%]	IC50 [5] [nM]
O=C(Cc1ccc(C(F)(F)F)cc1)Nc1ccc(C(=O)NO)cc1 [Ex. 01, N-hydroxy-4-[2-(4-trifluoromethyl-phenyl)-acetylamino]-benzamide]	14.5	67	78.9	3.8	142
CC(CC(=O)Nc1ccc(C(=O)NO)cc1)c1ccccc1 (stereo not drawn) [Ex. 02, N-hydroxy-4-(3-phenyl-butyrylamino)-benzamide]	76	–	–	–	–
COc1cccc(CCC(=O)Nc2ccc(C(=O)NO)cc2)c1 [Ex. 03, N-hydroxy-4-[3-(3-methoxy-phenyl)-propionylamino]-benzamide]	26	56	60.7	7.3	219
COc1ccc(CC(=O)Nc2ccc(C(=O)NO)cc2)cc1 [Ex. 04, N-hydroxy-4-[2-(4-methoxy-phenyl)-acetylamino]-benzamide]	51.5	42	90.2	0	113
CCOc1ccc(CC(=O)Nc2ccc(C(=O)NO)cc2)cc1 [Ex. 05, N-hydroxy-4-[2-(4-ethoxy-phenyl)-acetylamino]-benzamide]	32	–	89.0	0	90
O=C(CCc1cc(C(F)(F)F)cc(C(F)(F)F)c1)Nc1ccc(C(=O)NO)cc1 [Ex. 06, N-hydroxy-4-[3-(3,5-bis-trifluoromethyl-phenyl)-propionyl-amino]-benzamide]	17	–	68.4	13	19
COc1cc(CC(=O)Nc2ccc(C(=O)NO)cc2)cc(OC)c1OC [Ex. 07, N-hydroxy-4-[2-(3,4,5-trimethoxy-phenyl)-acetylamino]-benzamide]	45	–	–	–	14
CSc1ccc(CC(=O)Nc2ccc(C(=O)NO)cc2)cc1 [Ex. 08, N-hydroxy-4-[2-(4-methylsulphanil-phenyl)-acetylamino]-benzamide]	320	–	–	–	58
O=C(Cc1cccc(C(F)(F)F)c1)Nc1ccc(C(=O)NO)cc1 [Ex. 09, N-hydroxy-4-[2-(3-trifluoromethyl-phenyl)-acetylamino]-benzamide]	70	–	–	–	67
O=C(Cc1cccc([N+](=O)[O-])c1)Nc1ccc(C(=O)NO)cc1 [Ex. 10, N-hydroxy-4-[2-(3-nitro-phenyl)-acetylamino]-benzamide]	134	–	–	–	130
O=C(Cc1cccc(Oc2ccccc2)c1)Nc1ccc(C(=O)NO)cc1 [Ex. 11, N-hydroxy-4-[2-(3-phenoxy-phenyl)-acetylamino]-benzamide]	108	–	–	–	102
O=C(Cc1ccc(-c2ccccc2)cc1)Nc1ccc(C(=O)NO)cc1 [Ex. 12, N-hydroxy-4-[2-(diphenyl-4-yl)-acteylamino]-benzamide]	227	–	–	–	7
COc1cccc(CC(=O)Nc2ccc(C(=O)NO)cc2)c1OC [Ex. 13, N-hydroxy-4-[2-(2,3-dimethoxy-phenyl)-acetylamino]-benzamide]	187	–	–	–	202
O=C(CCc1ccccc1OC(=O)c1ccccc1)Nc1ccc(C(=O)NO)cc1 [Ex. 14, 2-[2-(4-hydroxycarbamoyl-phenylcarbamoyl)-ethyl]-phenyl ester of benzoic acid]	157	–	–	–	106
O=C(Cc1ccc([N+](=O)[O-])cc1)Nc1ccc(C(=O)NO)cc1 [Ex. 15, N-hydroxy-4-[2-(4-nitro-phenyl)-acteylamino]-benzamide]	27	–	–	0	146
O=C(Cc1ccccc1Oc1ccccc1)Nc1ccc(C(=O)NO)cc1 [Ex. 16, N-hydroxy-4-[2-(2-phenoxy-phenyl)-acetylamino]-benzamide]	259	–	–	–	118
COc1cc(CC(=O)Nc2ccc(C(=O)NO)cc2)c([N+](=O)[O-])cc1OC [Ex. 17, N-hydroxy-4-[2-(4,5-dimethoxy-2-nitro-phenyl)-acetylamino]-benzamide]	280	–	–	–	255
O=C(Cc1ccccc1OCc1ccccc1)Nc1ccc(C(=O)NO)cc1 [Ex. 18, N-hydroxy-4-[2-(2-benzyloxy-phenyl)-acetylamino]-benzamide]	391	–	–	–	112
O=C(Cc1ccccc1[N+](=O)[O-])Nc1ccc(C(=O)NO)cc1 [Ex. 19, N-hydroxy-4-[2-(2-nitro-phenyl)-acetylamino]-benzamide]	1000	–	–	–	214
